{
  "source": "patent US12544370B2",
  "about": "“Methods for cancer therapy” (ASCENTAGE PHARMA (SUZHOU) CO., LTD., priority 2018, dated 2026)",
  "key": {"[1]": {"test_system": "Ba/F3 cells having BCR-ABL^WT"}, "[2]": {"test_system": "patients with chronic phase (CP/CML-CP) or accelerated phase (AP/CML-AP) CML resistant to or intolerant of ≥2 prior TKIs or with BCR-ABL T315I", "assay": "Phase 1 trial in resistant CML, further safety (Example 2)", "description": "The eligible patients received continuous treatment until disease progression or unacceptable toxicity, consent withdrawal, or death. The primary efficacy endpoints were major cytogenetic response (MCyR) for CP and complete hematological response (CHR) for AP. MCyR includes partial cytogenetic response (PCyR) and complete cytogenetic response (CCyR). Blood samples were collected at various time points on Day 1-2 and Day 27-28 during cycle 1 for PK analyses."}, "[3]": {"test_system": "CRKL phosphorylation in PBMCs, a biomarker of BCR-ABL inhibition", "assay": "Phase 1 trial, CRKL phosphorylation in PBMCs (Example 2)", "format": "in vivo, human", "conditions": "53 evaluable patients", "description": "The eligible patients received treatments until disease progression or intolerable toxicities. The primary efficacy endpoint in the CML AP and CP patients, was complete hematological response (CHR) and major cytogenetic response (MCyR) respectively, MCyR includes partial cytogenetic response (PCyR) and complete cytogenetic response (CCyR). Blood samples were collected at various time points on Day 1-2 and Day 27-28 during cycle 1 for PK analyses."}, "[4]": {"conditions": "Example 2, Table 3, treatment related AE, treated population 101"}},
  "data": [
    {"smiles": "Cc1ccc(C(=O)Nc2ccc(CN3CCN(C)CC3)c(C(F)(F)F)c2)cc1C#Cc1cnc2[nH]ncc2c1", "note": "[compound of formula (I-A), 3-(2-(1H-pyrazolo[3,4-b]pyridin-5-yl)ethynyl)-4-methyl-N-(4-((4-methylpiperazin-1-yl)methyl)-3-(trifluoromethyl)phenyl)-benzamide]", "values": [
      {"measurement": "survival rate of isogenic leukemia mice", "setting": "[1]", "value": "significantly improved the survival rate"},
      {"measurement": "death / CTCAE grade 5 events on study", "setting": "[2]; Example 2", "value": "No death and no CTCAE grade 5 events"},
      {"measurement": "ALT elevation, Any Grade", "setting": "[2]; [4]", "value": "34 (33.7%) n(%)"},
      {"measurement": "ALT elevation, Grade 3, 4", "setting": "[2]; [4]", "value": "2 (2.0%) n(%)"},
      {"measurement": "ALT elevation, SAE", "setting": "[2]; [4]", "value": "0 n(%)"},
      {"measurement": "AST elevation, Any Grade", "setting": "[2]; [4]", "value": "37 (36.6%) n(%)"},
      {"measurement": "AST elevation, Grade 3, 4", "setting": "[2]; [4]", "value": "3 (3.0%) n(%)"},
      {"measurement": "AST elevation, SAE", "setting": "[2]; [4]", "value": "0 n(%)"},
      {"measurement": "Anemia, Any Grade", "setting": "[2]; [4]", "value": "25 (24.8%) n(%)"},
      {"measurement": "Anemia, Grade 3, 4", "setting": "[2]; [4]", "value": "12 (11.9%) n(%)"},
      {"measurement": "Anemia, SAE", "setting": "[2]; [4]", "value": "2 (2.0%) n(%)"},
      {"measurement": "Bilirubin elevation, Any Grade", "setting": "[2]; [4]", "value": "34 (33.7%) n(%)"},
      {"measurement": "Bilirubin elevation, Grade 3, 4", "setting": "[2]; [4]", "value": "1 (1.0%) n(%)"},
      {"measurement": "Bilirubin elevation, SAE", "setting": "[2]; [4]", "value": "0 n(%)"},
      {"measurement": "CPK elevation, Any Grade", "setting": "[2]; [4]", "value": "20 (19.8%) n(%)"},
      {"measurement": "CPK elevation, Grade 3, 4", "setting": "[2]; [4]", "value": "2 (2.0%) n(%)"},
      {"measurement": "CPK elevation, SAE", "setting": "[2]; [4]", "value": "0 n(%)"},
      {"measurement": "GGT elevation, Any Grade", "setting": "[2]; [4]", "value": "24 (23.8%) n(%)"},
      {"measurement": "GGT elevation, Grade 3, 4", "setting": "[2]; [4]", "value": "0 n(%)"},
      {"measurement": "GGT elevation, SAE", "setting": "[2]; [4]", "value": "0 n(%)"},
      {"measurement": "Hyperglycaemia, Grade 3, 4", "setting": "[2]; [4]", "value": "0 n(%)"},
      {"measurement": "Hyperglycaemia, SAE", "setting": "[2]; [4]", "value": "0 n(%)"},
      {"measurement": "Hypertriglyceridaemia, Any grade", "setting": "[2]; [4]", "value": "55 (54.5%) n(%)"},
      {"measurement": "Hypertriglyceridaemia, Grade 3, 4", "setting": "[2]; [4]", "value": "8 (7.9%) n(%)"},
      {"measurement": "Hypertriglyceridaemia, SAE", "setting": "[2]; [4]", "value": "0 n(%)"},
      {"measurement": "Hypocalcaemia, Any grade", "setting": "[2]; [4]", "value": "34 (33.7%) n(%)"},
      {"measurement": "Hypocalcaemia, Grade 3, 4", "setting": "[2]; [4]", "value": "0 n(%)"},
      {"measurement": "Hypocalcaemia, SAE", "setting": "[2]; [4]", "value": "0 n(%)"},
      {"measurement": "Hypokalaemia, Any Grade", "setting": "[2]; [4]", "value": "20 (19.8%) n(%)"},
      {"measurement": "Hypokalaemia, Grade 3, 4", "setting": "[2]; [4]", "value": "0 n(%)"},
      {"measurement": "Hypokalaemia, SAE", "setting": "[2]; [4]", "value": "0 n(%)"},
      {"measurement": "Hyponatraemia, Any Grade", "setting": "[2]; [4]", "value": "23 (22.8%) n(%)"},
      {"measurement": "Hyponatraemia, Grade 3, 4", "setting": "[2]; [4]", "value": "0 n(%)"},
      {"measurement": "Hyponatraemia, SAE", "setting": "[2]; [4]", "value": "0 n(%)"},
      {"measurement": "Myalgia, Grade 3, 4", "setting": "[2]; [4]", "value": "0 n(%)"},
      {"measurement": "Myalgia, SAE", "setting": "[2]; [4]", "value": "0 n(%)"},
      {"measurement": "Proteinuria, Any grade", "setting": "[2]; [4]", "value": "35 (34.7%) n(%)"},
      {"measurement": "Proteinuria, Grade 3, 4", "setting": "[2]; [4]", "value": "5 (5.0%) n(%)"},
      {"measurement": "Proteinuria, SAE", "setting": "[2]; [4]", "value": "0 n(%)"},
      {"measurement": "Pyrexia, Any Grade", "setting": "[2]; [4]", "value": "18 (17.8%) n(%)"},
      {"measurement": "Pyrexia, Grade 3, 4", "setting": "[2]; [4]", "value": "7 (6.9%) n(%)"},
      {"measurement": "Pyrexia, SAE", "setting": "[2]; [4]", "value": "1 (1.0%) n(%)"},
      {"measurement": "Rash, Any Grade", "setting": "[2]; [4]", "value": "15 (14.9%) n(%)"},
      {"measurement": "Rash, Grade 3, 4", "setting": "[2]; [4]", "value": "2 (2.0%) n(%)"},
      {"measurement": "Rash, SAE", "setting": "[2]; [4]", "value": "0 n(%)"},
      {"measurement": "Skin mass, Any Grade", "setting": "[2]; [4]", "value": "10 (9.9%) n(%)"},
      {"measurement": "Skin mass, Grade 3, 4", "setting": "[2]; [4]", "value": "1 (1.0%) n(%)"},
      {"measurement": "Skin mass, SAE", "setting": "[2]; [4]", "value": "0 n(%)"},
      {"measurement": "Skin pigmentation, Any Grade", "setting": "[2]; [4]", "value": "79 (78.2%) n(%)"},
      {"measurement": "Skin pigmentation, Grade 3, 4", "setting": "[2]; [4]", "value": "0 n(%)"},
      {"measurement": "Skin pigmentation, SAE", "setting": "[2]; [4]", "value": "0 n(%)"},
      {"measurement": "Thrombocytopenia, Any grade", "setting": "[2]; [4]", "value": "76 (75.2%) n(%)"},
      {"measurement": "Thrombocytopenia, Grade 3, 4", "setting": "[2]; [4]", "value": "50 (49.5%) n(%)"},
      {"measurement": "Thrombocytopenia, SAE", "setting": "[2]; [4]", "value": "6 (5.9%) n(%)"},
      {"measurement": "leukopenia, Grade 3, 4", "setting": "[2]; [4]", "value": "20 (19.8%) n(%)"},
      {"measurement": "leukopenia, SAE", "setting": "[2]; [4]", "value": "0 n(%)"},
      {"measurement": "patients who experienced DLT", "setting": "[2]; Example 2, 60 mg cohort", "value": "Two out of 3"},
      {"measurement": "grade ¾ TRAE thrombocytopenia", "setting": "[2]; Example 2, 101 patients", "value": 49.5, "unit": "%"},
      {"measurement": "tolerability", "setting": "[2]; Example 2, 101 patients", "value": "well-tolerated in all dose cohorts with an exception of 60 mg cohort"},
      {"measurement": "MTD", "setting": "[2]; Example 2, QOD", "value": 50, "unit": "mg"},
      {"measurement": "patients who experienced ≥1 treatment related adverse events (TRAEs)", "setting": "[2]; Example 2, all patients", "value": "101 (100%) n (%)"},
      {"measurement": "reduction of CRKL phosphorylation in PBMCs", "setting": "[3]", "value": "dose and time dependent"}
    ]}
  ]
}
